Data: ChEMBL document CHEMBL1154629, “Design, synthesis and biological evaluation of novel thiazole derivatives as potent FabH inhibitors” (Bioorg Med Chem Lett, 2009)
pIC50: −log10 of the molar value. Values after ≈ are worked out from the molar mass of the structure shown.

What was measured:
Bacillus subtilis = experiment: Antimicrobial activity Bacillus subtilis ATCC 6633 by MTT assay; type: functional
Staphylococcus aureus = experiment: Antimicrobial activity Staphylococcus aureus ATCC 6538 by MTT assay; type: functional
Enterococcus faecalis = experiment: Antimicrobial activity Streptococcus faecalis ATCC 9790 by MTT assay; type: functional
Enterobacter cloacae = experiment: Antimicrobial activity Enterobacter cloacae ATCC 13047 by MTT assay; type: functional
[1] = target: T1, 3-oxoacyl-[acyl-carrier-protein] synthase 3 (Escherichia coli, UniProt C3TDZ2); experiment: Inhibition of Escherichia coli FabH
T1 sequence (C3TDZ2 whole entry): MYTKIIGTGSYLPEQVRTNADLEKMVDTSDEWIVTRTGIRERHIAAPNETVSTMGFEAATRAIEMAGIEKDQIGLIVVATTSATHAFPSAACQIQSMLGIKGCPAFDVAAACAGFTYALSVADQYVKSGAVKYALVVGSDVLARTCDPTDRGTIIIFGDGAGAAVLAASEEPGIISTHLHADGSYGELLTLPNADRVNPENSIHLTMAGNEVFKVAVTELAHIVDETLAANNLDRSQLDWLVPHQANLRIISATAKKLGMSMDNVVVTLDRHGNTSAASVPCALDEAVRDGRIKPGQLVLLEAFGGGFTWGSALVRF

[2] = Toxicity in erythrocytes assessed as hemolysis; type: cell-based; settings: erythrocyte
Pseudomonas aeruginosa = experiment: Antimicrobial activity Pseudomonas aeruginosa ATCC 13525 by MTT assay
Escherichia coli = experiment: Antimicrobial activity Escherichia coli ATCC 35218 by MTT assay

Row | Compound | MIC (Bacillus subtilis) | MIC (Staphylococcus aureus) | MIC (Enterococcus faecalis) | MIC (Enterobacter cloacae) | pIC50 [1] | MIC (Pseudomonas aeruginosa) | MIC (Escherichia coli) | LC30 [2]
1 | Oc1ccc(Cl)cc1/C=N/Nc1nc(-c2ccccc2)cs1 | > 50 µg/mL | > 50 µg/mL | 25 µg/mL (≈ 75.8 µM) | > 50 µg/mL | – | 12.5 µg/mL (≈ 37.9 µM) | 12.5 µg/mL (≈ 37.9 µM) | –
2 | Cc1ccc(/C=N/Nc2nc(-c3ccccc3)cs2)cc1 | > 50 µg/mL | 25 µg/mL (≈ 85.2 µM) | > 50 µg/mL | > 50 µg/mL | – | 25 µg/mL (≈ 85.2 µM) | – | –
3 | Oc1c(Br)cc(Br)cc1/C=N/Nc1nc(-c2ccc(Cl)cc2)cs1 | > 50 µg/mL | 25 µg/mL (≈ 51.3 µM) | > 50 µg/mL | 6.25 µg/mL (≈ 12.8 µM) | 4.11 | 25 µg/mL (≈ 51.3 µM) | – | > 10000 µg/mL
4 | COc1ccc(/C=N/Nc2nc(-c3ccccc3)cs2)cc1 | 25 µg/mL (≈ 80.8 µM) | > 50 µg/mL | > 50 µg/mL | > 50 µg/mL | – | > 50 µg/mL | – | –
5 | Brc1ccc(/C=N/Nc2nc(-c3ccccc3)cs2)cc1 | > 50 µg/mL | 12.5 µg/mL (≈ 34.9 µM) | 1.56 µg/mL (≈ 4.36 µM) | 25 µg/mL (≈ 69.8 µM) | – | 12.5 µg/mL (≈ 34.9 µM) | – | –
6 | Cc1ccc(/C=N/Nc2nc(-c3ccc(Cl)c(Cl)c3)cs2)cc1 | > 50 µg/mL | 25 µg/mL (≈ 69 µM) | > 50 µg/mL | 12.5 µg/mL (≈ 34.5 µM) | – | 25 µg/mL (≈ 69 µM) | 25 µg/mL (≈ 69 µM) | –
7 | Clc1ccc(/C=N/Nc2nc(-c3ccc(Cl)cc3)cs2)cc1 | > 50 µg/mL | 12.5 µg/mL (≈ 35.9 µM) | > 50 µg/mL | > 50 µg/mL | – | 6.25 µg/mL (≈ 17.9 µM) | – | –
8 | Oc1ccc(Cl)cc1/C=N/Nc1nc(-c2ccc(Cl)c(Cl)c2)cs1 | > 50 µg/mL | 12.5 µg/mL (≈ 31.4 µM) | 12.5 µg/mL (≈ 31.4 µM) | > 50 µg/mL | 4.40 | 12.5 µg/mL (≈ 31.4 µM) | – | > 10000 µg/mL
9 | CC1(C)S[C@@H]2[C@H](NC(=O)Cc3ccccc3)C(=O)N2[C@H]1C(=O)O [PENICILLIN G] | 1.56 µg/mL (≈ 4.67 µM) | 1.56 µg/mL (≈ 4.67 µM) | 1.56 µg/mL (≈ 4.67 µM) | 3.12 µg/mL (≈ 9.35 µM) | – | 6.25 µg/mL (≈ 18.7 µM) | 6.25 µg/mL (≈ 18.7 µM) | –
10 | Oc1ccc(Br)cc1/C=N/Nc1nc(-c2ccc(Cl)cc2)cs1 | 25 µg/mL (≈ 61.2 µM) | 6.25 µg/mL (≈ 15.3 µM) | 12.5 µg/mL (≈ 30.6 µM) | 6.25 µg/mL (≈ 15.3 µM) | 5.17 | 6.25 µg/mL (≈ 15.3 µM) | – | > 10000 µg/mL
11 | Clc1ccc(/C=N/Nc2nc(-c3ccccc3)cs2)cc1 | 25 µg/mL (≈ 79.7 µM) | 25 µg/mL (≈ 79.7 µM) | 25 µg/mL (≈ 79.7 µM) | 25 µg/mL (≈ 79.7 µM) | – | 25 µg/mL (≈ 79.7 µM) | – | –
12 | Oc1c(Cl)cc(Cl)cc1/C=N/Nc1nc(-c2ccccc2)cs1 | 25 µg/mL (≈ 68.6 µM) | > 50 µg/mL | 25 µg/mL (≈ 68.6 µM) | 12.5 µg/mL (≈ 34.3 µM) | – | > 50 µg/mL | – | –
13 | Oc1c(Cl)cc(Cl)cc1/C=N/Nc1nc(-c2ccc(Cl)cc2)cs1 | > 50 µg/mL | > 50 µg/mL | 12.5 µg/mL (≈ 31.4 µM) | > 50 µg/mL | 4.24 | 6.25 µg/mL (≈ 15.7 µM) | 6.25 µg/mL (≈ 15.7 µM) | > 10000 µg/mL

More lines, main results first:

Row | MIC (Bacillus subtilis) | MIC (Staphylococcus aureus) | MIC (Enterococcus faecalis) | MIC (Enterobacter cloacae) | pIC50 [1] | MIC (Pseudomonas aeruginosa) | MIC (Escherichia coli) | Compound | LC30 [2]
14 | 12.5 µg/mL (≈ 28.9 µM) | 6.25 µg/mL (≈ 14.4 µM) | 12.5 µg/mL (≈ 28.9 µM) | 12.5 µg/mL (≈ 28.9 µM) | 4.78 | 6.25 µg/mL (≈ 14.4 µM) | – | Oc1c(Cl)cc(Cl)cc1/C=N/Nc1nc(-c2ccc(Cl)c(Cl)c2)cs1 | > 10000 µg/mL
15 | 6.25 µg/mL (≈ 17.1 µM) | 0.78 µg/mL (≈ 2.13 µM) | 6.25 µg/mL (≈ 17.1 µM) | 25 µg/mL (≈ 68.3 µM) | – | 25 µg/mL (≈ 68.3 µM) | 25 µg/mL (≈ 68.3 µM) | Fc1ccc(/C=N/Nc2nc(-c3ccc(Cl)c(Cl)c3)cs2)cc1 | –
16 | 12.5 µg/mL (≈ 31.8 µM) | 12.5 µg/mL (≈ 31.8 µM) | 25 µg/mL (≈ 63.7 µM) | 12.5 µg/mL (≈ 31.8 µM) | – | > 50 µg/mL | – | Clc1ccc(-c2csc(N/N=C/c3ccc(Br)cc3)n2)cc1 | –
17 | 3.12 µg/mL (≈ 5.99 µM) | 6.25 µg/mL (≈ 12 µM) | 6.25 µg/mL (≈ 12 µM) | 3.12 µg/mL (≈ 5.99 µM) | 5.44 | 3.12 µg/mL (≈ 5.99 µM) | – | Oc1c(Br)cc(Br)cc1/C=N/Nc1nc(-c2ccc(Cl)c(Cl)c2)cs1 | > 10000 µg/mL
18 | 12.5 µg/mL (≈ 33.4 µM) | 25 µg/mL (≈ 66.8 µM) | 12.5 µg/mL (≈ 33.4 µM) | 25 µg/mL (≈ 66.8 µM) | – | 25 µg/mL (≈ 66.8 µM) | – | Oc1ccc(Br)cc1/C=N/Nc1nc(-c2ccccc2)cs1 | –
19 | 25 µg/mL (≈ 66.1 µM) | 25 µg/mL (≈ 66.1 µM) | > 50 µg/mL | 6.25 µg/mL (≈ 16.5 µM) | – | 25 µg/mL (≈ 66.1 µM) | – | COc1ccc(/C=N/Nc2nc(-c3ccc(Cl)c(Cl)c3)cs2)cc1 | –
20 | 0.39 µg/mL (≈ 0.807 µM) | 1.56 µg/mL (≈ 3.23 µM) | 3.12 µg/mL (≈ 6.46 µM) | 1.56 µg/mL (≈ 3.23 µM) | – | 3.12 µg/mL (≈ 6.46 µM) | 3.12 µg/mL (≈ 6.46 µM) | NC[C@H]1O[C@H](O[C@H]2[C@H](O)[C@@H](O[C@H]3O[C@H](CO)[C@@H](O)[C@H](N)[C@H]3O)[C@H](N)C[C@@H]2N)[C@H](N)[C@@H](O)[C@@H]1O [BEKANAMYCIN] | –
21 | 12.5 µg/mL (≈ 27.6 µM) | > 50 µg/mL | 25 µg/mL (≈ 55.2 µM) | 25 µg/mL (≈ 55.2 µM) | – | 25 µg/mL (≈ 55.2 µM) | 25 µg/mL (≈ 55.2 µM) | Oc1c(Br)cc(Br)cc1/C=N/Nc1nc(-c2ccccc2)cs1 | –
22 | 6.25 µg/mL (≈ 19.1 µM) | 25 µg/mL (≈ 76.3 µM) | 12.5 µg/mL (≈ 38.1 µM) | 6.25 µg/mL (≈ 19.1 µM) | – | 25 µg/mL (≈ 76.3 µM) | – | Cc1ccc(/C=N/Nc2nc(-c3ccc(Cl)cc3)cs2)cc1 | –
23 | 6.25 µg/mL (≈ 17.2 µM) | 12.5 µg/mL (≈ 34.3 µM) | 25 µg/mL (≈ 68.6 µM) | 12.5 µg/mL (≈ 34.3 µM) | 4.93 | 12.5 µg/mL (≈ 34.3 µM) | – | Oc1ccc(Cl)cc1/C=N/Nc1nc(-c2ccc(Cl)cc2)cs1 | > 10000 µg/mL
24 | 12.5 µg/mL (≈ 28.2 µM) | 25 µg/mL (≈ 56.4 µM) | > 50 µg/mL | 12.5 µg/mL (≈ 28.2 µM) | 4.36 | 12.5 µg/mL (≈ 28.2 µM) | – | Oc1ccc(Br)cc1/C=N/Nc1nc(-c2ccc(Cl)c(Cl)c2)cs1 | > 10000 µg/mL
25 | 12.5 µg/mL (≈ 36.4 µM) | 25 µg/mL (≈ 72.7 µM) | > 50 µg/mL | > 50 µg/mL | – | 25 µg/mL (≈ 72.7 µM) | – | COc1ccc(/C=N/Nc2nc(-c3ccc(Cl)cc3)cs2)cc1 | –
26 | 12.5 µg/mL (≈ 37.7 µM) | 6.25 µg/mL (≈ 18.8 µM) | 12.5 µg/mL (≈ 37.7 µM) | 25 µg/mL (≈ 75.3 µM) | – | 25 µg/mL (≈ 75.3 µM) | – | Fc1ccc(/C=N/Nc2nc(-c3ccc(Cl)cc3)cs2)cc1 | –
27 | 12.5 µg/mL (≈ 42 µM) | 6.25 µg/mL (≈ 21 µM) | > 50 µg/mL | > 50 µg/mL | – | 12.5 µg/mL (≈ 42 µM) | – | Fc1ccc(/C=N/Nc2nc(-c3ccccc3)cs2)cc1 | –
28 | 6.25 µg/mL (≈ 14.6 µM) | 3.12 µg/mL (≈ 7.32 µM) | 25 µg/mL (≈ 58.5 µM) | > 50 µg/mL | – | 12.5 µg/mL (≈ 29.3 µM) | 12.5 µg/mL (≈ 29.3 µM) | Clc1ccc(-c2csc(N/N=C/c3ccc(Br)cc3)n2)cc1Cl | –
29 | 12.5 µg/mL (≈ 32.7 µM) | 1.56 µg/mL (≈ 4.08 µM) | 25 µg/mL (≈ 65.3 µM) | 25 µg/mL (≈ 65.3 µM) | – | 12.5 µg/mL (≈ 32.7 µM) | 12.5 µg/mL (≈ 32.7 µM) | Clc1ccc(/C=N/Nc2nc(-c3ccc(Cl)c(Cl)c3)cs2)cc1 | –
